Measured values: PubChem BioAssay AID1259407 (Chemical Carcinogenesis Research Information System (CCRIS), 2018)
Activity calls are given as the source filed them. How the calls were made is not given here.

Test system: CCRIS mutagenicity, Ames/micronucleus/aberration tests
Assay: CCRIS mutagenicity studies
[1] = Test System: AMES SALMONELLA TYPHIMURIUM, Strain/Indicator: TA98, Metabolic Activation: NONE, Method: PREINCUBATION
[2] = Test System: AMES SALMONELLA TYPHIMURIUM, Strain/Indicator: TA100, Metabolic Activation: NONE, Method: PREINCUBATION

CC(=O)Nc1ccc(Oc2ccc(N(O)C(C)=O)cc2)cc1
mutagenic call (Test System: AMES SALMONELLA TYPHIMURIUM, Strain/Indicator: TA98(1,8-DNP6), Metabolic Activation: NONE, Method: PREINCUBATION): active; positive
mutagenic call (Test System: AMES SALMONELLA TYPHIMURIUM, Strain/Indicator: TA98(1,8-DNP6), Metabolic Activation: RAT, LIVER, S-9, AROCLOR 1254, Method: PREINCUBATION): active; positive
mutagenic call (Test System: AMES SALMONELLA TYPHIMURIUM, Strain/Indicator: TA98(NR), Metabolic Activation: NONE, Method: PREINCUBATION): active; positive
mutagenic call (Test System: AMES SALMONELLA TYPHIMURIUM, Strain/Indicator: TA98(NR), Metabolic Activation: RAT, LIVER, S-9, AROCLOR 1254, Method: PREINCUBATION): active; positive
mutagenic call [1]: active; positive
mutagenic call (Test System: AMES SALMONELLA TYPHIMURIUM, Strain/Indicator: TA98, Metabolic Activation: RAT, LIVER, S-9, AROCLOR 1254, Method: PREINCUBATION): active; positive
mutagenic call (Test System: AMES SALMONELLA TYPHIMURIUM, Strain/Indicator: TA100(NR), Metabolic Activation: NONE, Method: PREINCUBATION): active; positive
mutagenic call (Test System: AMES SALMONELLA TYPHIMURIUM, Strain/Indicator: TA100(NR), Metabolic Activation: RAT, LIVER, S-9, AROCLOR 1254, Method: PREINCUBATION): active; positive
mutagenic call [2]: active; positive
mutagenic call (Test System: AMES SALMONELLA TYPHIMURIUM, Strain/Indicator: TA100, Metabolic Activation: RAT, LIVER, S-9, AROCLOR 1254, Method: PREINCUBATION): active; positive

Cc1ccc(N=Nc2c(O)c(C(=O)O)cc3ccccc23)c(S(=O)(=O)O)c1
mutagenic call (Test System: AMES SALMONELLA TYPHIMURIUM, Strain/Indicator: TA98, Metabolic Activation: NONE, Method: STANDARD PLATE): inactive; negative
mutagenic call (Test System: AMES SALMONELLA TYPHIMURIUM, Strain/Indicator: TA98, Metabolic Activation: RAT LIVER S-9, AROCLOR 1254, Method: STANDARD PLATE): inactive; negative
mutagenic call (Test System: AMES SALMONELLA TYPHIMURIUM, Strain/Indicator: TA100, Metabolic Activation: NONE, Method: STANDARD PLATE): inactive; negative
mutagenic call (Test System: AMES SALMONELLA TYPHIMURIUM, Strain/Indicator: TA100, Metabolic Activation: RAT LIVER S-9, AROCLOR 1254, Method: STANDARD PLATE): inactive; negative

CC1(C)[C@H](C(=O)O[C@H](C#N)c2cccc(Oc3ccccc3)c2)[C@@H]1C(Br)C(Br)(Br)Br (stereo partly specified)
mutagenic call (End Point: In vivo chromosomal aberrations, Test System: Bone marrow cells, Species: Rat, Strain/Sex: Sprague Dawley CD, Route: Gavage): inactive; negative
mutagenic call (Test System: Ames Salmonella typhimurium, Strain/Indicator: TA98, Metabolic Activation: None): inactive; negative (precipitation above 100 ug/plate)
mutagenic call (Test System: Ames Salmonella typhimurium, Strain/Indicator: TA98, Metabolic Activation: Rat, Liver, S-9, Aroclor 1254): inactive; negative (precipitation above 100 ug/plate)
mutagenic call (Test System: Ames Salmonella typhimurium, Strain/Indicator: TA100, Metabolic Activation: None): inactive; negative (precipitation above 100 ug/plate)
mutagenic call (Test System: Ames Salmonella typhimurium, Strain/Indicator: TA100, Metabolic Activation: Rat, Liver, S-9, Aroclor 1254): inactive; negative (precipitation above 100 ug/plate)
mutagenic call (Test System: Ames Salmonella typhimurium, Strain/Indicator: TA1535, Metabolic Activation: None): inactive; negative (precipitation above 100 ug/plate)
mutagenic call (Test System: Ames Salmonella typhimurium, Strain/Indicator: TA1535, Metabolic Activation: Rat, Liver, S-9, Aroclor 1254): inactive; negative (precipitation above 100 ug/plate)
mutagenic call (Test System: Ames Salmonella typhimurium, Strain/Indicator: TA1537, Metabolic Activation: None): inactive; negative (precipitation above 100 ug/plate)
mutagenic call (Test System: Ames Salmonella typhimurium, Strain/Indicator: TA1537, Metabolic Activation: Rat, Liver, S-9, Aroclor 1254): inactive; negative (precipitation above 100 ug/plate)
mutagenic call (Test System: Ames Salmonella typhimurium, Strain/Indicator: TA1538, Metabolic Activation: None): inactive; negative (precipitation above 100 ug/plate)
mutagenic call (Test System: Ames Salmonella typhimurium, Strain/Indicator: TA1538, Metabolic Activation: Rat, Liver, S-9, Aroclor 1254): inactive; negative (precipitation above 100 ug/plate)

CN(C)CCN(Cc1ccccc1)c1ccccc1
mutagenic call (Test System: AMES SALMONELLA TYPHIMURIUM, Strain/Indicator: TA98, Metabolic Activation: HAMSTER, LIVER, S-9, AROCLOR 1254 (10%), Method: PREINCUBATION): inactive; negative
mutagenic call [1]: inactive; negative
mutagenic call (Test System: AMES SALMONELLA TYPHIMURIUM, Strain/Indicator: TA98, Metabolic Activation: RAT, LIVER, S-9, AROCLOR 1254 (10%), Method: PREINCUBATION): inactive; negative
mutagenic call (Test System: AMES SALMONELLA TYPHIMURIUM, Strain/Indicator: TA100, Metabolic Activation: HAMSTER, LIVER, S-9, AROCLOR 1254 (10%), Method: PREINCUBATION): inactive; negative
mutagenic call [2]: inactive; negative
mutagenic call (Test System: AMES SALMONELLA TYPHIMURIUM, Strain/Indicator: TA100, Metabolic Activation: RAT, LIVER, S-9, AROCLOR 1254 (10%), Method: PREINCUBATION): inactive; negative
mutagenic call (Test System: AMES SALMONELLA TYPHIMURIUM, Strain/Indicator: TA1535, Metabolic Activation: HAMSTER, LIVER, S-9, AROCLOR 1254 (10%), Method: PREINCUBATION): inactive; negative
mutagenic call (Test System: AMES SALMONELLA TYPHIMURIUM, Strain/Indicator: TA1535, Metabolic Activation: NONE, Method: PREINCUBATION): inactive; negative
mutagenic call (Test System: AMES SALMONELLA TYPHIMURIUM, Strain/Indicator: TA1535, Metabolic Activation: RAT, LIVER, S-9, AROCLOR 1254 (10%), Method: PREINCUBATION): inactive; negative
mutagenic call (Test System: AMES SALMONELLA TYPHIMURIUM, Strain/Indicator: TA1537, Metabolic Activation: HAMSTER, LIVER, S-9, AROCLOR 1254 (10%), Method: PREINCUBATION): inactive; negative
mutagenic call (Test System: AMES SALMONELLA TYPHIMURIUM, Strain/Indicator: TA1537, Metabolic Activation: NONE, Method: PREINCUBATION): inactive; negative
mutagenic call (Test System: AMES SALMONELLA TYPHIMURIUM, Strain/Indicator: TA1537, Metabolic Activation: RAT, LIVER, S-9, AROCLOR 1254 (10%), Method: PREINCUBATION): inactive; negative

C1CCC2=NCCCN2CC1
mutagenic call (Test System: Mouse lymphoma, Strain/Indicator: L5178Y (tk+/tk-), Metabolic Activation: None, Method: Suspension/plate): inactive; negative
mutagenic call (Test System: Mouse lymphoma, Strain/Indicator: L5178Y (tk+/tk-), Metabolic Activation: Rat, Liver, S-9, Aroclor 1254, Method: Suspension/plate): inactive; negative

COC(=O)[C@@H](C)CN=[N+]=[N-]
mutagenic call (Test System: AMES SALMONELLA TYPHIMURIUM, Strain/Indicator: TA100, Metabolic Activation: RAT, LIVER, S-9, PCB, Method: PREINCUBATION): active; positive

O=[N+]([O-])c1ccc(-c2ncn[nH]2)o1
mutagenic call (Test System: E. COLI, Strain/Indicator: WP2 UVRA, Metabolic Activation: NONE, Method: SPOT): active; positive
